In BindingDB's records for patent US20250313563 (The Broad Institute, 2025):
“And” between values parts separate entries of the source, which are not always exact repeats. Equal entries are not always repeated.

Key:
[1] = target: Glycogen synthase kinase-3 alpha (Homo sapiens, UniProt P49840); assay: TR-FRET Assay
Summary of the method: (§1)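 Enzyme and test compound were first incubated together for 30 minutes in assay buffer. The kinase reaction followed and was stopped with EDTA. The pSer641 signal was read by time-resolved FRET.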

[2] = target: Glycogen synthase kinase-3 beta (Homo sapiens, UniProt P49841); assay: TR-FRET Assay
Summary of the method: as §1

Chain of Glycogen synthase kinase-3 beta (P49841 whole entry): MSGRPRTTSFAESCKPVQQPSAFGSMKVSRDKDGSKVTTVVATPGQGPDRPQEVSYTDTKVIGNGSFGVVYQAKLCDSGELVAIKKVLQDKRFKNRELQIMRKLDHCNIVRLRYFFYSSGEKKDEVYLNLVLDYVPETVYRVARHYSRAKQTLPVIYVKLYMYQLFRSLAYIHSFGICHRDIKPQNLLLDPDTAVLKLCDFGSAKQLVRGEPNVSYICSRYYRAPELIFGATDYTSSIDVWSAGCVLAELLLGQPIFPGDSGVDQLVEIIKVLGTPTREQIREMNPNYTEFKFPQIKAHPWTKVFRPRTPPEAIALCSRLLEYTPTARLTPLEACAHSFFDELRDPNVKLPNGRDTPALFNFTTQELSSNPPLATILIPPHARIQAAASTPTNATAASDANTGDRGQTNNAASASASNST
Chain of Glycogen synthase kinase-3 alpha (P49840 whole entry): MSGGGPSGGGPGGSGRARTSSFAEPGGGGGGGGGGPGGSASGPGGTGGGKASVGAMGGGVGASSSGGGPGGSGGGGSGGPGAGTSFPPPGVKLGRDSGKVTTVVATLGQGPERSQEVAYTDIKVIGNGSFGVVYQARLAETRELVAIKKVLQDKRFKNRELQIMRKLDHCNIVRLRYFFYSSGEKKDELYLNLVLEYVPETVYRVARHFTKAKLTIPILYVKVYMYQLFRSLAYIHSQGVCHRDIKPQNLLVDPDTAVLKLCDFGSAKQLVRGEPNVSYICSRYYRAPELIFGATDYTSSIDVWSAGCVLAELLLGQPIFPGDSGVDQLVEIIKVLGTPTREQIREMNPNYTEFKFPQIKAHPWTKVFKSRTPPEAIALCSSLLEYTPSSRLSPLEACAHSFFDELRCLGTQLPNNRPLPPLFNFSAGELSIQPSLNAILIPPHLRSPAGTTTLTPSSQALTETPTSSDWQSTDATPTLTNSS

Row | IC50 [1] | IC50 [2] | SMILES
1 | < 100 nM | < 100 nM | CC[C@]1(c2cccc(-c3ccncc3C)c2)C2=C(CC(C)(C)NC2=O)NC2N=NC(C(F)(F)F)=C21 (some centres not stated) [US20250313563, Compound 947812]
2 | 1000 to 5000 nM | 1000 to 5000 nM | CC1(C)CC(=O)C2=C(C1)NC1=C(CN=N1)C21CN(c2cccnc2)C1 [US20250313563, Compound 947813]
3 | 1000 to 5000 nM | > 5000 nM | CC[C@@]1(c2cccc(S(C)(=O)=O)c2)C2=C(CC(C)(C)NC2=O)NC2N=NC(C)=C21 (some centres not stated) [US20250313563, Compound 947815]
4 | 1000 to 5000 nM | > 5000 nM | CC[C@]1(c2cccc(-c3ccnc(CCO)c3)c2)C2=CN=NC2NC2=C1C(=O)CC(C)(C)C2 (some centres not stated) [US20250313563, Compound 947816]
5 | < 100 nM | < 100 nM | CC[C@@]1(c2cccc(-c3cnn4c3CCCC4)c2)C2=C(CC(C)(C)NC2=O)NC2N=NC(C)=C21 (some centres not stated) [US20250313563, Compound 947817]
6 | < 100 nM | < 100 nM | CC[C@@]1(c2cccc(-c3cnn(C)c3C)c2)C2=C(CC(C)(C)NC2=O)NC2N=NC(C(F)(F)F)=C21 (some centres not stated) [US20250313563, Compound 947819]
7 | 100 to 1000 nM | 100 to 1000 nM | CC[C@@]1(c2cccc(-c3cncn3C)c2)C2=CN=NC2NC2=C1C(=O)NC(C)(C)C2 (some centres not stated) [US20250313563, Compound 947820]
8 | < 100 nM | < 100 nM | CC[C@@]1(c2cccc(-c3ccncc3F)c2)C2=C(CC(C)(C)NC2=O)NC2N=NC(C)=C21 (some centres not stated) [US20250313563, Compound 947821]
9 | 100 to 1000 nM | > 5000 nM | CC[C@@]1(c2cccc(-c3cc(C)ncc3F)c2)C2=CN=NC2NC2=C1C(=O)NC(C)(C)C2 (some centres not stated) [US20250313563, Compound 947822]
10 | 100 to 1000 nM | 1000 to 5000 nM | CC[C@@]1(c2cccc(S(=O)(=O)C(C)C)c2)C2=CN=NC2NC2=C1C(=O)NC(C)(C)C2 (some centres not stated) [US20250313563, Compound 947823]
11 | 100 to 1000 nM | 1000 to 5000 nM | CC[C@]1(c2cccc(-c3cnnn3C)c2)C2=CN=NC2NC2=C1C(=O)CC(C)(C)C2 (some centres not stated) [US20250313563, Compound 947824]
12 | 100 to 1000 nM | > 5000 nM | CC[C@]1(c2cccc(N(C)c3ncccn3)c2)C2=CN=NC2NC2=C1C(=O)NC(C)(C)C2 (some centres not stated) [US20250313563, Compound 947825]
13 | < 100 nM | < 100 nM | CC[C@@]1(c2cccc(N(C)c3ncccn3)c2)C2=CN=NC2NC2=C1C(=O)NC(C)(C)C2 (some centres not stated) [US20250313563, Compound 947826]
14 | < 100 nM | 100 to 1000 nM | CC1(C)CC2=C(C(=O)N1)C1(CCN(S(=O)(=O)c3cnn(C(C)(C)C)c3)CC1)C1=C(N=NC1)N2 [US20250313563, Compound 947835]
15 | < 100 nM | 100 to 1000 nM | CCn1ccc(S(=O)(=O)N2CCC3(CC2)C2=CN=NC2NC2=C3C(=O)NC(C)(C)C2)n1 (configuration not stated) [US20250313563, Compound 947836]
16 | < 100 nM | < 100 nM | CCc1ncc(S(=O)(=O)N2CCC3(CC2)C2=CN=NC2NC2=C3C(=O)NC(C)(C)C2)s1 (configuration not stated) [US20250313563, Compound 947837]
17 | < 100 nM | < 100 nM | CC1(C)CC(=O)C2=C(C1)NC1=C(CN=N1)[C@]21COC2(CN(C(=O)C(C)(F)F)C2)C1 [US20250313563, Compound 947838]
18 | < 100 nM | 100 to 1000 nM | CC1(C)CC(=O)C2=C(C1)NC1=C(CN=N1)[C@@]21COC2(CN(C(=O)C(C)(F)F)C2)C1 [US20250313563, Compound 947839]
19 | < 100 nM | < 100 nM | CCC1(c2cccc(-c3ccnc(C)c3)c2)C2=C(CC(C)(C)NC2=O)NC2N=NC(C(F)(F)F)=C21 (configuration not stated) [US20250313563, Compound 947858]
20 | < 100 nM | < 100 nM | CCC1(c2cccc(S(=O)(=O)C3CC3)c2)C2=C(CC(C)(C)NC2=O)NC2=C1C(C(F)(F)F)N=N2 (configuration not stated) [US20250313563, Compound 947859]
21 | < 100 nM | < 100 nM and 100 to 1000 nM | CCC1(c2cccc(N3CCCC3)c2)C2=C(CC(C)(C)NC2=O)NC2N=NC(C(F)(F)F)=C21 (configuration not stated) [US20250313563, Compound 947860]
22 | < 100 nM | < 100 nM and 100 to 1000 nM | CCC1(c2cccc(N3CCCCC3)c2)C2=C(CC(C)(C)NC2=O)NC2N=NC(C(F)(F)F)=C21 (configuration not stated) [US20250313563, Compound 947861]
23 | < 100 nM | < 100 nM and 100 to 1000 nM | CCC1(c2cccc(-c3ccnc4c3CCC4)c2)C2=C(CC(C)(C)NC2=O)NC2N=NC(C(F)(F)F)=C21 (configuration not stated) [US20250313563, Compound 947862]
24 | < 100 nM | < 100 nM | CCC1(c2cccc(N3CCOCC3)c2)C2=C(CC(C)(C)NC2=O)NC2N=NC(C(F)(F)F)=C21 (configuration not stated) [US20250313563, Compound 947863]
25 | < 100 nM | 100 to 1000 nM | CCC1(c2cccc(C(F)F)c2)C2=CN=NC2NC2=C1C(=O)NC(C)(C)C2 (configuration not stated) [US20250313563, Compound 947864]
26 | < 100 nM | < 100 nM | CCC1(c2cccc(C(F)F)c2)C2=C(CC(C)(C)NC2=O)NC2N=NC(C)=C21 (configuration not stated) [US20250313563, Compound 947865]

Row | IC50 [1] | IC50 [2] | SMILES
27 | < 100 nM | < 100 nM | CCC1(c2cccc(-c3ccncc3F)c2)C2=C(CC(C)(C)NC2=O)NC2N=NC(C(F)(F)F)=C21 (configuration not stated) [US20250313563, Compound 947866]
28 | < 100 nM | < 100 nM | CC[C@]1(c2ccc(OC(C)C)cc2)C2=C(CC(C)(C)CC2=O)NC2N=NC(C(F)(F)F)=C21 (some centres not stated) [US20250313563, Compound 947868]
29 | < 100 nM | < 100 nM and 1000 to 5000 nM | CC[C@@]1(c2cccc(-c3ccncc3F)c2)C2=CN=NC2NC2=C1C(=O)NC(C)(C)C2 (some centres not stated) [US20250313563, Compound 947869]
30 | < 100 nM | 100 to 1000 nM | CC[C@]1(c2cccc(-c3cnn(C)c3)c2)C2=C(CC(C)(C)NC2=O)NC2N=NC(C(F)(F)F)=C21 (some centres not stated) [US20250313563, Compound 947871]
31 | 100 to 1000 nM | 1000 to 5000 nM | CC[C@@]1(c2cccc(OC(C)C)c2)C2=C(CC(C)(C)CC2=O)NC2N=NC(C(F)(F)F)=C21 (some centres not stated) [US20250313563, Compound 947872]
32 | 100 to 1000 nM | 100 to 1000 nM | CC[C@@]1(c2ccc(OC(C)C)cc2)C2=C(CC(C)(C)CC2=O)NC2N=NC(C(F)(F)F)=C21 (some centres not stated) [US20250313563, Compound 947873]
33 | 100 to 1000 nM | 1000 to 5000 nM | CC[C@]1(c2cccc(-c3ccncc3F)c2)C2=CN=NC2NC2=C1C(=O)NC(C)(C)C2 (some centres not stated) [US20250313563, Compound 947874]
34 | < 100 nM | < 100 nM and 100 to 1000 nM | CC[C@@]1(c2cccc(-c3cnn(C)c3)c2)C2=C(CC(C)(C)NC2=O)NC2N=NC(C(F)(F)F)=C21 (some centres not stated) [US20250313563, Compound 947877]
35 | < 100 nM | < 100 nM | Cc1csc(S(=O)(=O)N2CCC3(CC2)C2=C(N=NC2)NC2=C3C(=O)CC(C)(C)C2)n1 [US20250313563, Compound 947897]
36 | < 100 nM | 100 to 1000 nM | Cn1cc(S(=O)(=O)N2CCC3(CC2)C2=C(N=NC2)NC2=C3C(=O)CC(C)(C)C2)nn1 [US20250313563, Compound 947898]
37 | < 100 nM | < 100 nM | Cc1ncc(S(=O)(=O)N2CCC3(CC2)C2=C(N=NC2)NC2=C3C(=O)CC(C)(C)C2)s1 [US20250313563, Compound 947899]
38 | < 100 nM | < 100 nM | CC1(C)CC(=O)C2=C(C1)NC1=C(CN=N1)C21CCN(S(=O)(=O)c2ccc3c(c2)OCCO3)CC1 [US20250313563, Compound 947900]
39 | < 100 nM | < 100 nM | CC1(C)CC(=O)C2=C(C1)NC1=C(CN=N1)C21CCN(S(=O)(=O)c2cccc3ccncc23)CC1 [US20250313563, Compound 947901]
40 | < 100 nM | < 100 nM | CC1(C)CC(=O)C2=C(C1)NC1=C(CN=N1)C21CCN(S(=O)(=O)c2ccc(C(F)(F)F)cn2)CC1 [US20250313563, Compound 947902]
41 | < 100 nM | < 100 nM | CC1(C)CC(=O)C2=C(C1)NC1=C(CN=N1)C21CCN(S(=O)(=O)c2cnn(CCF)c2)CC1 [US20250313563, Compound 947903]
42 | < 100 nM | < 100 nM | CC1(C)CC(=O)C2=C(C1)NC1=C(CN=N1)C21CCN(S(=O)(=O)c2cnn(-c3ccccc3)c2)CC1 [US20250313563, Compound 947904]
43 | 1000 to 5000 nM | > 5000 nM | CC[C@]1(c2cccc(-c3ccnn3C)c2)C2=CN=NC2NC2=C1C(=O)N[C@](C)(COC)C2 (some centres not stated) [US20250313563, Compound 947908]
44 | 100 to 1000 nM | 1000 to 5000 nM | CC[C@@]1(c2cccc(-c3ccncc3C)c2)C2=CN=NC2NC2=C1C(=O)N[C@@]1(CCCOC1)C2 (some centres not stated) [US20250313563, Compound 947909]
45 | < 100 nM | < 100 nM | CC[C@@]1(c2cccc(-c3ccncc3C)c2)C2=CN=NC2NC2=C1C(=O)N[C@]1(CCCOC1)C2 (some centres not stated) [US20250313563, Compound 947910]
46 | < 100 nM | < 100 nM | CC[C@]1(c2cccc(-c3ccncc3C)c2)C2=CN=NC2NC2=C1C(=O)N[C@]1(CCCOC1)C2 (some centres not stated) [US20250313563, Compound 947911]
47 | 100 to 1000 nM | 1000 to 5000 nM | CC[C@]1(c2cccc(-c3ccncc3C)c2)C2=CN=NC2NC2=C1C(=O)N[C@@]1(CCCOC1)C2 (some centres not stated) [US20250313563, Compound 947912]
48 | < 100 nM | < 100 nM | CC[C@@]1(c2cccc(-c3ccnn3C)c2)C2=CN=NC2NC2=C1C(=O)N[C@@]1(CCOC1)C2 (some centres not stated) [US20250313563, Compound 948015]
49 | < 100 nM | < 100 nM | CC[C@]1(c2cccc(-c3ccnn3C)c2)C2=CN=NC2NC2=C1C(=O)N[C@@]1(CCOC1)C2 (some centres not stated) [US20250313563, Compound 948017]
50 | < 100 nM | < 100 nM | CC[C@@]1(c2cccc(-c3ccnn3C)c2)C2=CN=NC2NC2=C1C(=O)NC1(CCCC1)C2 (some centres not stated) [US20250313563, Compound 948018]
51 | 1000 to 5000 nM | > 5000 nM | CC[C@]1(c2cccc(-c3ccnn3C)c2)C2=CN=NC2NC2=C1C(=O)NC1(CCCC1)C2 (some centres not stated) [US20250313563, Compound 948019]
